In patent publication US20080045514A1 (Cytovia, Inc., priority 2006, published 2008):
Structures can show the parent of a compound that is named as a salt.

Tests used:
Assay type in all cases: cell-based
[1] = tested on: human hepatocellular carcinoma cell line SNU398; assay: Caspase cascade activation (EC50), SNU398; conditions: Homo sapiens, SNU-398; SNU398 cells; caspase cascade activation; read-out: caspase potency (EC50) SNU398
In short: (§1)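 Cells at 0.65×10^6 cells/mL exposed to compound at 0.016 to 10 μM final (1% DMSO) for 48 h at 37° C, 5% CO2. Caspase activity then read with 14 μM Ac-DEVD-R110 fluorogenic substrate in lysolecithin/DTT/PIPES pH 7.2 buffer at ex 485/em 530 nm after 3 h at room temperature. EC50 fitted sigmoidally from net RFU ratio to control.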

[2] = tested on: human colon carcinoma cell line HCT116; assay: Caspase cascade activation (EC50), HCT116; conditions: Homo sapiens, HCT-116; HCT116 cells; caspase cascade activation; read-out: caspase potency (EC50) HCT116
In short: as §1

[3] = tested on: human breast cancer cell line T-47D; assay: Caspase cascade activation (EC50), T-47D; conditions: Homo sapiens; T47D cells; caspase cascade activation; read-out: caspase potency (EC50) T47D
In short: as §1

[4] = tested on: human cancer cell line H1299; assay: Caspase cascade activation (EC50), H1299; conditions: NCI-H1299, H1299 cells, read-out: caspase potency (EC50) H1299
Protocol: (§2) Human breast cancer cell lines T-47D, human hepatocellular carcinoma cell line SNU398, human colon carcinoma cell line HCT116, human cancer cell line H1299, human Burkitt's lymphoma cell line Namalwa, human lymphoma cell line Raji, and human B cell lymphoblastoid cell line Ramos were grown according to media component mixtures designated by American Type Culture Collection+10% FCS (Invitrogen Corporation), in a 5% CO2-95% humidity incubator at 37° C. T-47D and H1299 cells were maintained at a cell density between 50 and 80% confluency at a cell density of 0.1 to 0.6×10^6 cells/mL. Cells were harvested at 600×g and resuspended at 0.65×10^6 cells/mL into appropriate media+10% FCS. An aliquot of 22.5 μL of cells was added to a well of a 384-well microtiter plate containing 2.5 μL of a 10% DMSO in RPMI-1640 media solution containing 0.16 to 100 μM of 3-(2-chlorophenyl)-6-(3,4-methylenedioxyphenyl)-7H-[1,2,4]triazolo[3,4-b][1,3,4]thiadiazine or other test compound (0.016 to 10 μM final). An aliquot of 22.5 μL of cells was added to a well of a 384-well microtiter plate containing 2.5 μL of a 10% DMSO in RPMI-1640 media solution without test compound as the control sample. The samples were mixed by agitation and then incubated at 37° C. for 48 h in a 5% CO2-95% humidity incubator. After incubation, the samples were removed from the incubator and 25 μL of a solution containing 14 μM of N—(Ac-DEVD)-N′-ethoxycarbonyl-R110 (SEQ ID No.:1) fluorogenic substrate (Cytovia, Inc.; WO99/18856), 20% sucrose (Sigma), 20 mM DTT (Sigma), 200 mM NaCl (Sigma), 40 mM Na PIPES buffer pH 7.2 (Sigma), and 500 μg/mL lysolecithin (Calbiochem) was added. The samples were mixed by agitation and incubated at room temperature. Using a fluorescent plate reader (Model SPECTRAfluor Plus, Tecan), an initial reading (T=0) was made approximately 1-2 min after addition of the substrate solution, employing excitation at 485 nm and emission at 530 nm, to determine the background fluorescence of the control sample. After the 3 h incubation, the samples were read for fluorescence as above (T=3 h). Calculation: The Relative Fluorescence Unit values (RFU) were used to calculate the sample readings as follows: RFU(T=3H)−Control RFU(T=0)=Net RFU(T=3h) The activity of caspase cascade activation was determined by the ratio of the net RFU value for 3-(2-chlorophenyl)-6-(3,4-methylenedioxyphenyl)-7H-[1,2,4]triazolo[3,4-b][1,3,4]thiadiazine (Example P) or other test compound to that of control samples. The EC50 (nM) was determined by a sigmoidal dose-response calculation (Prism 3.0, GraphPad Software Inc.).

[5] = tested on: human Burkitt's lymphoma cell line Namalwa; assay: Caspase cascade activation (EC50), Namalwa; conditions: Homo sapiens, Burkitts lymphoma cell; Namalwa cells; caspase cascade activation; read-out: caspase potency (EC50) Namalwa
In short: as §1

[6] = tested on: human lymphoma cell line Raji; assay: Caspase cascade activation (EC50), Raji; conditions: Homo sapiens, RAJI cells, read-out: caspase potency (EC50) RAJI
Protocol: as §2

[7] = tested on: human B cell lymphoblastoid cell line Ramos; assay: Caspase cascade activation (EC50), Ramos; conditions: Homo sapiens, RAMOS cells, read-out: caspase potency (EC50) RAMOS
Protocol: as §2

Work on COc1cccc(-c2nnc3n2N=C(c2ccc4ccccc4c2)CS3)c1 [Example B1, 3-(3-Methoxyphenyl)-6-(2-naphthyl)-7H-[1,2,4]triazolo[3,4-b][1,3,4]thiadiazine] yielded an EC50 [1] of 930 nM, an EC50 [2] of 1310 nM and an EC50 [3] of 1420 nM. For the same molecule, the EC50 [4] was 1710 nM.
Molecule Cc1cccc(-c2nnc3n2N=C(c2ccc4ccccc4c2)CS3)c1 [U, 3-(3-Methylphenyl)-6-(2-naphthyl)-7H-[1,2,4]triazolo[3,4-b][1,3,4]thiadiazine] has an EC50 [3] of 5540 nM and an EC50 [4] of 3570 nM.
With CCOc1cccc(-c2nnc3n2N=C(c2ccc(OC)cc2)CS3)c1 [Example D1, 3-(3-Ethoxyphenyl)-6-(4-methoxyphenyl)-7H-[1,2,4]triazolo[3,4-b][1,3,4]thiadiazine] the EC50 [1] was 778 nM, the EC50 [2] was 1500 nM and the EC50 [3] was 2300 nM. The EC50 [4] was 2710 nM.
Work on CCOc1ccc(C2=Nn3c(nnc3-c3ccc(OC)cc3)SC2)cc1 [I, 3-(4-Methoxyphenyl)-6-(4-ethoxyphenyl)-7H-[1,2,4]triazolo[3,4-b][1,3,4]thiadiazine] yielded an EC50 [1] of 1010 nM, an EC50 [2] of 1580 nM and an EC50 [3] of 2490 nM. For the same molecule, the EC50 [4] was 1820 nM.
In the case of COc1ccc(C2=Nn3c(nnc3-c3ccc(Cl)cc3)SC2)cc1OC [E, 3-(4-Chlorophenyl)-6-(3,4-dimethoxyphenyl)-7H-[1,2,4]triazolo[3,4-b][1,3,4]thiadiazine], the EC50 [3] is reported as 1880 nM and the EC50 [4] is reported as 2100 nM.
In the case of Clc1cccc(-c2nnc3n2N=C(c2ccc4c(c2)OCO4)CS3)c1 [S, 3-(3-Chlorophenyl)-6-(3,4-methylenedioxyphenyl)-7H-[1,2,4]triazolo[3,4-b][1,3,4]thiadiazine], the EC50 [5] is reported as over 10000 nM, the EC50 [6] is reported as over 1000 nM and the EC50 [1] is reported as 1630 nM. For the same molecule, the EC50 [2] was over 10000 nM, the EC50 [7] was over 1000 nM and the EC50 [3] was over 10000 nM. The EC50 [4] was over 10000 nM.
With Clc1ccc(-c2nnc3n2N=C(c2ccc4c(c2)OCO4)CS3)c(Cl)c1 [Example I1, 3-(2,4-Dichlorophenyl)-6-(3,4-methylenedioxyphenyl)-7H-[1,2,4]triazolo[3,4-b][1,3,4]thiadiazine] the EC50 [5] was 221 nM, the EC50 [6] was 171 nM and the EC50 [1] was 172 nM. For the same molecule, the EC50 [2] was 254 nM, the EC50 [7] was 150 nM and the EC50 [3] was 278 nM. For the same molecule, the EC50 [4] was 1380 nM.
CCOc1ccc(C2=Nn3c(nnc3-c3ccccc3OC)SC2)cc1 [Example B2, 3-(2-Methoxyphenyl)-6-(4-ethoxyphenyl)-7H-[1,2,4]triazolo[3,4-b][1,3,4]thiadiazine] was tested, and the EC50 [5] was 106 nM, the EC50 [1] was 30 nM and the EC50 [2] was 40 nM. For the same molecule, the EC50 [3] was 175 nM and the EC50 [4] was 106 nM.
With COc1cccc(-c2nnc3n2N=C(c2ccc(OC)c(OC)c2)CS3)c1 [Y, 3-(3-Methoxyphenyl)-6-(3,4-dimethoxyphenyl)-7H-[1,2,4]triazolo[3,4-b][1,3,4]thiadiazine] the EC50 [5] was 558 nM, the EC50 [6] was 735 nM and the EC50 [1] was 1360 nM. It also gave an EC50 [2] of 3180 nM, an EC50 [7] of 593 nM and an EC50 [3] of 4130 nM. It also gave an EC50 [4] of 2850 nM.
CCOc1ccc(-c2nnc3n2N=C(c2ccc(O)c(O)c2)CS3)cc1 [Example F1, 3-(4-Ethoxyphenyl)-6-(3,4-dihydroxyphenyl)-7H-[1,2,4]triazolo[3,4-b][1,3,4]thiadiazine] was tested, and the EC50 [3] was 2580 nM and the EC50 [4] was 2640 nM.
Molecule CCOc1ccc(C2=Nn3c(nnc3-c3cccc(OC)c3)SC2)cc1 [Z, 3-(3-Methoxyphenyl)-6-(4-ethoxyphenyl)-7H-[1,2,4]triazolo[3,4-b][1,3,4]thiadiazine] has an EC50 [1] of 331 nM, an EC50 [2] of 693 nM and an EC50 [3] of 2810 nM. The EC50 [4] was 2330 nM.
With Clc1ccccc1-c1nnc2n1N=C(c1ccc(Br)cc1)CS2 [Q, 3-(2-Chlorophenyl)-6-(4-bromophenyl)-7H-[1,2,4]triazolo[3,4-b][1,3,4]thiadiazine] the EC50 [3] was 5350 nM and the EC50 [4] was 5140 nM.
CCOc1ccc(C2=Nn3c(nnc3-c3ccc(Cl)cc3Cl)SC2)cc1 [Example H1, 3-(2,4-Dichlorophenyl)-6-(4-ethoxyphenyl)-7H-[1,2,4]triazolo[3,4-b][1,3,4]thiadiazine] showed an EC50 [1] of 41 nM, an EC50 [2] of 161 nM and an EC50 [3] of 553 nM. For the same molecule, the EC50 [4] was 2010 nM.
CCOc1ccc(C2=Nn3c(nnc3-c3ccccc3Cl)SC2)cc1 [O, 3-(2-Chlorophenyl)-6-(4-ethoxyphenyl)-7H-[1,2,4]triazolo[3,4-b][1,3,4]thiadiazine] showed an EC50 [1] of 129 nM, an EC50 [2] of 279 nM and an EC50 [3] of 1340 nM. It also gave an EC50 [4] of 1000 nM.
Molecule Clc1ccc(-c2nnc3n2N=C(c2ccccc2)CS3)c(Cl)c1 [Example J1, 3-(2,4-Dichlorophenyl)-6-phenyl-7H-[1,2,4]triazolo[3,4-b][1,3,4]thiadiazine] has an EC50 [3] of 2870 nM and an EC50 [4] of 2590 nM.
For Fc1ccccc1-c1nnc2n1N=C(c1ccc3c(c1)OCO3)CS2 [Example Q1, 3-(2-Fluorophenyl)-6-(3,4-methylenedioxyphenyl)-7H-[1,2,4]triazolo[3,4-b][1,3,4]thiadiazine], the EC50 [5] was 250 nM, the EC50 [6] was 484 nM and the EC50 [1] was 257 nM. For the same molecule, the EC50 [2] was 551 nM, the EC50 [7] was 264 nM and the EC50 [3] was 277 nM.
Molecule Oc1ccc(C2=Nn3c(nnc3-c3ccc(Cl)cc3)SC2)cc1 [Example 6, 3-(4-Chlorophenyl)-6-(4-hydroxyphenyl)-7H-[1,2,4]triazolo[3,4-b][1,3,4]thiadiazine hydrobromide] has an EC50 [5] of over 10000 nM, an EC50 [6] of over 10000 nM and an EC50 [1] of 5430 nM. The EC50 [2] was over 10000 nM, the EC50 [7] was 7650 nM and the EC50 [3] was 855 nM.
CCOc1ccc(C2=Nn3c(nnc3-c3ccc(F)cc3)SC2)cc1 [Example P2, 3-(4-Fluorophenyl)-6-(4-ethoxyphenyl)-7H-[1,2,4]triazolo[3,4-b][1,3,4]thiadiazine] gave an EC50 [5] of 880 nM, an EC50 [6] of 901 nM and an EC50 [1] of 473 nM. It also gave an EC50 [2] of 1470 nM, an EC50 [7] of 660 nM and an EC50 [3] of 2160 nM.
COc1ccc(C2=Nn3c(nnc3-c3ccc(C)cc3)SC2)cc1OC [A, 3-(4-Methylphenyl)-6-(3,4-dimethoxyphenyl)-7H-[1,2,4]triazolo[3,4-b][1,3,4]thiadiazine] was tested, and the EC50 [3] was 2420 nM and the EC50 [4] was 2730 nM.
COc1cc(-c2nnc3n2N=C(c2ccc(Br)cc2)CS3)cc(OC)c1OC [Example U1, 3-(3,4,5-Trimethoxyphenyl)-6-(4-bromophenyl)-7H-[1,2,4]triazolo[3,4-b][1,3,4]thiadiazine] was tested, and the EC50 [5] was 40 nM, the EC50 [6] was 65 nM and the EC50 [1] was 42 nM. It also gave an EC50 [2] of 65 nM, an EC50 [7] of 39 nM and an EC50 [3] of 145 nM.
Cc1ccc(-c2nnc3n2N=C(c2ccc4c(c2)OCO4)CS3)cc1 [C, 3-(4-Methylphenyl)-6-(3,4-methylenedioxyphenyl)-7H-[1,2,4]triazolo[3,4-b][1,3,4]thiadiazine] showed an EC50 [5] of 580 nM, an EC50 [6] of 568 nM and an EC50 [1] of 599 nM. For the same molecule, the EC50 [2] was over 10000 nM, the EC50 [7] was 711 nM and the EC50 [3] was 683 nM.
COc1cc(-c2nnc3n2N=C(c2cccc(Br)c2)CS3)cc(OC)c1OC [Example X1, 3-(3,4,5-Trimethoxyphenyl)-6-(3-bromophenyl)-7H-[1,2,4]triazolo[3,4-b][1,3,4]thiadiazine] showed an EC50 [5] of 2510 nM, an EC50 [6] of 3410 nM and an EC50 [1] of 2650 nM. The EC50 [2] was 2480 nM, the EC50 [7] was 2510 nM and the EC50 [3] was 2640 nM.
